Results from patent publication US9868737B2, “Pyridino[1,2-A]pyrimidone analogue used as MTOR/P13K inhibitor” (CISEN PHARMACEUTICAL CO., LTD., priority 2014, dated 2018).
Where two headings read alike, the source gives them in different places.

Assays:
[1] = system: MCF-7 cells; assay: In vitro test of cell activity (MCF-7 cells, insulin stimulation, ELISA-One fluorescence); type: cell-based; conditions: Homo sapiens, MCF7, MCF-7 cells; for inhibition at 0.25 µM: conc. 0.25 μM; for inhibition at 0.5 µM: conc. 0.5 μM; for inhibition at 1 µM: conc. 1 μM
In short: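 MCF-7 cells, seeded at 2.5×10^4/well in 10% FBS medium, were given compound in serum-free medium for 2 h at one concentration (screen) or a series (IC50). Insulin stimulation followed at […] final for 30 min; lysates assayed by ELISA-One sandwich immunoassay with fluorescence read-out.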

[2] = biological target: T1, mTOR kinase (Homo sapiens, UniProt P42345); assay: mTOR kinase assay; type: biochemical; conditions: in vitro enzyme activity assay; ATP 100 μM; read-out: mTOR enzyme activity_IC50
T1 construct: made in house
Description: 2. Experimental Procedures and Methods of the mTOR Kinase Assay
The objective was to evaluate the inhibitory effect of the subject samples on the mTOR kinase activity at molecular level.
(§1) PerkinElmer Envision 2104 Multilabel Reader.
The mTOR Kinase Assay (384 wells) was purchased from PerkinElmer company; the mTOR kinase was made in our lab.
Each solution was prepared according to the instructions provided in the mTOR Kinase Assay. The kinase reaction was carried out in white 384-well plates (Proxiplate-384 plus). 2.5 μl of DMSO (the concentration was consistent with the highest concentration of DMSO for the test compounds) was added to each of the two control wells with and without enzyme, and then 2.5 μl of a series of different concentrations of the test compounds was added to each test well. ULight-4E-BP1 (Thr37/46) PeptideATP mix (the final concentration of ATP was 100 μM) and 5 μl of mTOR kinase were added to the control well containing enzyme as well as the test wells, and fully mixed. The plate was sealed with Parafilm and incubated for 2 h. Then 5 μl of stop solution was added and incubated for 5 minutes. Afterwards, 5 μl of Detection Mix (Eu-anti-phospho-4E-BP1 (Thr37/46) Antibody, the final concentration was 2 nM) was added and incubated for 1 h, and then the mixture was detected.
(§2) The IC50 value was calculated through the GraphPad software after plotting the relative inhibitory rate versus concentration.

[3] = biological target: T2, PI3K (p110α) kinase (Homo sapiens, UniProt P42336); assay: PI3K (p110α) kinase assay (PI3K HTRF Assay); type: biochemical; conditions: in vitro enzyme activity assay, 10 μM PIP2, read-out: PI3K (p110α) enzyme activity_IC50
T2 construct: made in house
T2 sequence (P42336 whole entry): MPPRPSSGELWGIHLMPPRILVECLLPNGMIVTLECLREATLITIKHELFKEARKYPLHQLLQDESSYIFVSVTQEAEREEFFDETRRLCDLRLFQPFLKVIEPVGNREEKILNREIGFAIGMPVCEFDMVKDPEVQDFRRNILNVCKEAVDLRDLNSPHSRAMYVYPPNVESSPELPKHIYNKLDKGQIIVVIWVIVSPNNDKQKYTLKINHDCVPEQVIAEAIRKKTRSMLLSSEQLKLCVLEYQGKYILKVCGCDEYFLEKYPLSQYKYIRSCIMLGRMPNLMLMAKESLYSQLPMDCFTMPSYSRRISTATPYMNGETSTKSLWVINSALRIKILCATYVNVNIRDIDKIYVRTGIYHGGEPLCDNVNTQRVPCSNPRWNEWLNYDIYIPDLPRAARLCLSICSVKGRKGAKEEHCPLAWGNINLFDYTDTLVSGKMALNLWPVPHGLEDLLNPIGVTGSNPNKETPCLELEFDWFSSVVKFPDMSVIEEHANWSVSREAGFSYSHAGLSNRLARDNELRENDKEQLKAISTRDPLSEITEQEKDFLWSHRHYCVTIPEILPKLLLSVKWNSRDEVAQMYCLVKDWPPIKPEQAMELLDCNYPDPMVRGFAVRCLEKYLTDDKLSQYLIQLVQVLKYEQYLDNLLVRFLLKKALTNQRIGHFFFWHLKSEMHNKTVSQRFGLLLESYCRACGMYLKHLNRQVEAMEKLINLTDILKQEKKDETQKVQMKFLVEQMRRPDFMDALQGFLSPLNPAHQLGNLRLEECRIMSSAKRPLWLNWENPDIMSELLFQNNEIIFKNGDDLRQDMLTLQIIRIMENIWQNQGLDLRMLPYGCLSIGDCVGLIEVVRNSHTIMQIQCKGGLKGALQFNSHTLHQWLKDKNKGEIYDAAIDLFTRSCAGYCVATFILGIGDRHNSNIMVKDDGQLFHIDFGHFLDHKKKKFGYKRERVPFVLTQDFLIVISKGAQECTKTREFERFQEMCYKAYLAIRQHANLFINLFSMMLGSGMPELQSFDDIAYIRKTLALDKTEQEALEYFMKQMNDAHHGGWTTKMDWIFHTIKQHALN
From the text: Conclusion: The compounds of the present invention have significant inhibitory effect on mTOR/PI3K. Example In Vitro Enzyme Activity Assay 1. The experimental procedures and methods of PI3K (p110α) kinase assay: 1) Experimental Objective
The objective was to evaluate the inhibitory effect of the subject samples on PI3K (p110α) kinase activity at molecular level.
as §1
PI 3-Kinase HTRF Assay (384 wells) was purchased from Upstate (Millipore) company: PI3K (p110α) kinase was made in our lab.
c) Experimental procedures
Each solution was prepared according to the instructions provided in the Kinase PI 3-Kinase HTRF Assay. The kinase reaction was carried out in white 384-well plates (Proxiplate-384 plus), 0.5 μl of DMSO (the concentration was consistent with the highest concentration of DMSO for the test compounds) was added to each of the two control wells with and without enzyme, and then 0.5 μl of a series of different concentrations of the test compounds was added to each well to be tested. The kinase reaction liquid (10 μM substrate PIP2, 0.5 ng PI3K (p110α)) was added to the control well containing enzyme and the test wells, while only working reaction liquid (10 μM substrate PIP2) was added to the control well without enzyme, and finally, 5 μM ATP working reaction liquid was added to activate the reaction. After the reaction was carried out at room temperature for 30 min, the stop solution was added to each well to terminate the kinase reaction. After the mixture was fully mixed, the detection liquid was added to each well and fully mixed. The plate was sealed with Parafilm and placed in the dark. After incubated overnight, the mixture was detected.
as §2

| Compound | IC50 ([1]; read-out: IC50 p-AKT) | IC50 [3] | also measured |
| --- | --- | --- | --- |
| CCOc1cnc2ccc(-c3cnc(OC)c(NS(=O)(=O)c4ccc(Cl)s4)c3)cn2c1=O [compound 174] | ≤ 50 nM | ≤ 1 nM | inhibition at 0.25 µM ([1]; read-out: % inhibition AKT): 92.5%; inhibition at 0.25 µM ([1]; read-out: % inhibition p70s6k): 78.4%; IC50 ([1]; read-out: IC50 p-p70S6K): ≤ 50 nM; IC50 [2]: 50 to 100 nM |
| COc1ncc(-c2ccc3ncc(OC)c(=O)n3c2)cc1NS(=O)(=O)c1ccc(F)cc1Cl [compound 104] | ≤ 50 nM | 1 to 10 nM | inhibition at 0.5 µM ([1]; read-out: % inhibition AKT): 95.2%; inhibition at 0.5 µM ([1]; read-out: % inhibition p70s6k): 91.7%; IC50 ([1]; read-out: IC50 p-p70S6K): ≤ 50 nM; IC50 [2]: 10 to 50 nM |
| COCCOc1cnc2ccc(-c3cnc(OC)c(NS(=O)(=O)c4c(C)cc(C)cc4C)c3)cn2c1=O [compound 268] | 100 to 250 nM | 1 to 10 nM |  |
| COc1ncc(-c2ccc3nccc(=O)n3c2)cc1NS(=O)(=O)c1ccc(F)cc1C [compound 26] | ≤ 50 nM | 1 to 10 nM | inhibition at 1 µM ([1]; read-out: % inhibition AKT): 95.6%; inhibition at 1 µM ([1]; read-out: % inhibition p70s6k): 93.7%; IC50 ([1]; read-out: IC50 p-p70S6K): 50 to 100 nM; IC50 [2]: 10 to 50 nM |
| COc1ncc(-c2ccc3ncc(OCC4COC4)c(=O)n3c2)cc1NS(=O)(=O)c1ccc(C)cc1Cl [compound 277] | ≤ 50 nM | ≤ 1 nM |  |
| COc1ncc(-c2ccc3ncc(OCC4COC4)c(=O)n3c2)cc1NS(=O)(=O)c1ccc(F)cc1C [compound 255] | 100 to 250 nM | ≤ 1 nM |  |
| COCCOc1cnc2ccc(-c3cnc(OC)c(NS(=O)(=O)c4ccccc4Cl)c3)cn2c1=O [compound 253] | ≤ 50 nM | ≤ 1 nM |  |
| COCCOc1cnc2ccc(-c3cnc(OC)c(NS(=O)(=O)c4cc(C)c(Cl)cc4Cl)c3)cn2c1=O [compound 258] |  | 1 to 10 nM |  |
| COc1ncc(-c2ccc3ncc(OCC4COC4)c(=O)n3c2)cc1NS(=O)(=O)c1c(Cl)cccc1Cl [compound 249] | ≤ 50 nM | ≤ 1 nM |  |
| COCCOc1cnc2ccc(-c3cnc(OC)c(NS(=O)(=O)c4cc(C)ccc4C)c3)cn2c1=O [compound 262] | 50 to 100 nM | ≤ 1 nM |  |
| COCCOc1cnc2ccc(-c3cnc(OC)c(NS(=O)(=O)c4ccc(F)c(F)c4)c3)cn2c1=O [compound 246] | 100 to 250 nM | ≤ 1 nM |  |
| COCCOc1cnc2ccc(-c3cnc(OC)c(NS(=O)(=O)c4c(F)cccc4F)c3)cn2c1=O [compound 265] | 100 to 250 nM | ≤ 1 nM |  |
| COc1ncc(-c2ccc3ncc(OCC4COC4)c(=O)n3c2)cc1NS(=O)(=O)c1ccc(F)c(F)c1 [compound 250] | 50 to 100 nM | ≤ 1 nM |  |
| COc1ncc(-c2ccc3ncc(OCCOCC(F)(F)F)c(=O)n3c2)cc1NS(=O)(=O)c1ccc(F)cc1Cl [compound 242] | 100 to 250 nM | ≤ 1 nM |  |
| COCCOc1cnc2ccc(-c3cnc(OC)c(NS(=O)(=O)c4c(Cl)cccc4Cl)c3)cn2c1=O [compound 245] | ≤ 50 nM | ≤ 1 nM |  |
| COCCOc1cnc2ccc(-c3cnc(OC)c(NS(=O)(=O)c4cccc(C)c4)c3)cn2c1=O [compound 247] | 100 to 250 nM | ≤ 1 nM |  |
| COCCOc1cnc2ccc(-c3cnc(OC)c(NS(=O)(=O)c4ccc(Cl)cc4Cl)c3)cn2c1=O [compound 263] | 50 to 100 nM | ≤ 1 nM |  |
| COCCOc1cnc2ccc(-c3cnc(OC)c(NS(=O)(=O)c4ccc(C)cc4C)c3)cn2c1=O [compound 244] | 50 to 100 nM | ≤ 1 nM |  |
| COCCOc1cnc2ccc(-c3cnc(OC)c(NS(=O)(=O)c4ccc(C)cc4Cl)c3)cn2c1=O [compound 275] | ≤ 50 nM | ≤ 1 nM |  |
| COc1ncc(-c2ccc3ncc(OCC4COC4)c(=O)n3c2)cc1NS(=O)(=O)c1ccccc1Cl [compound 257] | ≤ 50 nM | ≤ 1 nM |  |
| COCCOc1cnc2ccc(-c3cnc(OC)c(NS(=O)(=O)c4cc(C)c(Cl)cc4F)c3)cn2c1=O [compound 269] |  | 1 to 10 nM |  |

| Compound | IC50 ([1]; read-out: IC50 p-AKT) | IC50 [3] | also measured |
| --- | --- | --- | --- |
| COc1ncc(-c2ccc3ncc(OCC4COC4)c(=O)n3c2)cc1NS(=O)(=O)c1ccc(C)cc1C [compound 251] | 100 to 250 nM | ≤ 1 nM |  |
| COc1ncc(-c2ccc3ncc(OCCCF)c(=O)n3c2)cc1NS(=O)(=O)c1ccc(F)cc1Cl [compound 243] | ≤ 50 nM | ≤ 1 nM |  |
| COCCOc1cnc2ccc(-c3cnc(OC)c(NS(=O)(=O)c4cccc(Cl)c4C)c3)cn2c1=O [compound 261] | 50 to 100 nM | ≤ 1 nM |  |
| COCCOc1cnc2ccc(-c3cnc(OC)c(NS(=O)(=O)c4ccc(F)cc4C4CC4)c3)cn2c1=O [compound 284] |  | 1 to 10 nM |  |
| COc1ncc(-c2ccc3nccc(=O)n3c2)cc1NS(=O)(=O)c1ccc(C)s1 [compound 35] | ≤ 50 nM |  | inhibition at 0.5 µM ([1]; read-out: % inhibition AKT): 93.3%; inhibition at 0.5 µM ([1]; read-out: % inhibition p70s6k): 86%; IC50 ([1]; read-out: IC50 p-p70S6K): ≤ 50 nM |
| COc1ncc(-c2ccc3ncc(F)c(=O)n3c2)cc1NS(=O)(=O)c1ccc(C#N)cc1 [compound 70] | 50 to 100 nM |  | inhibition at 0.5 µM ([1]; read-out: % inhibition AKT): 75.4%; inhibition at 0.5 µM ([1]; read-out: % inhibition p70s6k): 99%; IC50 ([1]; read-out: IC50 p-p70S6K): 50 to 100 nM |
| COc1ncc(-c2ccc3nccc(=O)n3c2C)cc1NS(=O)(=O)c1ccc(C#N)cc1 [compound 59] |  |  | inhibition at 0.5 µM ([1]; read-out: % inhibition AKT): 59.7%; inhibition at 0.5 µM ([1]; read-out: % inhibition p70s6k): 26.5% |
| COc1ncc(-c2ccc3nccc(=O)n3n2)cc1NS(=O)(=O)c1cccc(F)c1 [compound 79] |  |  | inhibition at 0.5 µM ([1]; read-out: % inhibition AKT): 63.3%; inhibition at 0.5 µM ([1]; read-out: % inhibition p70s6k): 15.9% |
| Cc1ncc(-c2ccc3nccc(=O)n3c2)cc1NS(=O)(=O)c1ccccc1F [compound 10] |  |  | inhibition at 1 µM ([1]; read-out: % inhibition AKT): 81.9%; inhibition at 1 µM ([1]; read-out: % inhibition p70s6k): 27.8% |
| COCCOc1cnc2ccc(-c3cnc(OC)c(NS(=O)(=O)c4ccc(Cl)cc4F)c3)cn2c1=O [compound 271] | 50 to 100 nM | ≤ 1 nM |  |
| COc1ncc(-c2ccc3ncc(Cl)c(=O)n3c2)cc1NS(=O)(=O)c1ncc(C)s1 [compound 162] | 50 to 100 nM |  | inhibition at 0.25 µM ([1]; read-out: % inhibition AKT): 77.8%; inhibition at 0.25 µM ([1]; read-out: % inhibition p70s6k): 64.9%; IC50 ([1]; read-out: IC50 p-p70S6K): 100 to 250 nM |
| COCCOc1cnc2ccc(-c3cnc(OC)c(NS(=O)(=O)c4ccc(F)cc4Cl)c3)cn2c1=O [compound 213] | 50 to 100 nM |  |  |
| COc1ncc(-c2ccc3ncc(Cl)c(=O)n3c2)cc1NS(=O)(=O)c1cccc(F)c1 [compound 138] |  |  | inhibition at 0.5 µM ([1]; read-out: % inhibition AKT): 68.9%; inhibition at 0.5 µM ([1]; read-out: % inhibition p70s6k): 73.8% |
| COCCOc1cnc2ccc(-c3cnc(OC)c(NS(=O)(=O)c4cc(F)ccc4C)c3)cn2c1=O [compound 260] | 100 to 250 nM | ≤ 1 nM |  |
| COCCOc1cnc2ccc(-c3cnc(OC)c(NS(=O)(=O)n4nc(C)cc4C)c3)cn2c1=O [compound 283] |  | 1 to 10 nM |  |
| COCCOc1cnc2ccc(-c3cnc(OC)c(NS(=O)(=O)c4ccc(F)cc4C)c3)cn2c1=O [compound 252] | > 250 nM | 1 to 10 nM |  |
| COc1ncc(-c2ccc3ncc(O)c(=O)n3c2)cc1NS(=O)(=O)c1ccccc1Cl [compound 102] |  |  | inhibition at 0.25 µM ([1]; read-out: % inhibition AKT): 37.3%; inhibition at 0.25 µM ([1]; read-out: % inhibition p70s6k): 18.2% |
| COc1ncc(-c2ccc3ncc(OCC4COC4)c(=O)n3c2)cc1NS(=O)(=O)c1cccc(C)c1 [compound 248] | 50 to 100 nM |  |  |
| COCOc1cnc2ccc(-c3cnc(OC)c(NS(=O)(=O)c4ccc(F)cc4F)c3)cn2c1=O [compound 179] | ≤ 50 nM |  | IC50 ([1]; read-out: IC50 p-p70S6K): ≤ 50 nM |
| COc1ncc(-c2ccc3ncc(N)c(=O)n3c2)cc1NS(=O)(=O)c1sc(C)nc1C [compound 93] | ≤ 50 nM |  |  |
| COCCOc1cnc2ccc(-c3cnc(OC)c(NS(=O)(=O)c4cnc(C)cc4C)c3)cn2c1=O [compound 282] |  | ≤ 1 nM |  |
